Results from the NIST ThermoML archive (doi:10.1016/j.jct.2006.07.004).

Test: xn = mol fraction of the nth substance listed
Details: 101 kPa, Liquid; for viscosity: Capillary tube (Ostwald / Ubbelohde) method; for mass density: Vibrating tube method

ClC(Cl)Cl [trichloromethane] + CC(=O)CC(C)C
Details | mass density, 283.15 K [kg/m3] | mass density, 293.15 K [kg/m3] | mass density, 303.15 K [kg/m3] | mass density, 313.15 K [kg/m3] | viscosity, 283.15 K [mPa·s] | viscosity, 293.15 K [mPa·s] | viscosity, 303.15 K [mPa·s] | viscosity, 313.15 K [mPa·s]
x1 = 0.0847 | 849 | 839.4 | 829.9 | 820 | 0.685 | 0.598 | 0.531 | 0.472
x1 = 0.1841 | 898.2 | 888.1 | 878 | 867.5 | 0.719 | 0.63 | 0.558 | 0.493
x1 = 0.276 | 947.2 | 936.6 | 925.8 | 914.9 | 0.755 | 0.659 | 0.577 | 0.513
x1 = 0.3529 | 991.1 | 980.1 | 968.7 | 957.1 | 0.78 | 0.678 | 0.596 | 0.526
x1 = 0.4467 | 1048.8 | 1037 | 1025 | 1012.6 | 0.808 | 0.696 | 0.616 | 0.542
x1 = 0.506 | 1087.7 | 1075.3 | 1062.8 | 1050 | 0.812 | 0.703 | 0.62 | 0.551
x1 = 0.6079 | 1159.3 | 1146 | 1132.5 | 1118.7 | 0.814 | 0.704 | 0.623 | 0.557
x1 = 0.6959 | 1226.7 | 1212.4 | 1197.9 | 1183.2 | 0.798 | 0.696 | 0.619 | 0.554
x1 = 0.8213 | 1332.6 | 1316.7 | 1300.6 | 1284.1 | 0.746 | 0.664 | 0.592 | 0.533
x1 = 0.9067 | 1412.3 | 1395 | 1377.7 | 1359.8 | 0.689 | 0.629 | 0.56 | 0.503
x1 = 1 | 1507.3 | 1488.4 | 1469.4 | 1450 | 0.629 | 0.573 | 0.516 | 0.468
